Several values for one entry are separate records, joined by “and”; a condition that tells them apart may be missing. Identical values can stand only once.
Columns and labels:
β1-AR [1] = target: T1, β1-AR (Homo sapiens, UniProt P08588); assay: Saturation binding of [3H]dihydroalprenolol, β1-AR membranes; parameters: host or cells: HEK293T, transient; membranes; conditions: HEK293T membranes
Method: (§1) Figure S2. Saturation binding of [3H]dihydroalprenolol t o the β1 and β2 adrenergic rec eptors, related to Figure 3. Increasing concentrations [3H]dihydroalprenolol were incubated with membranes of HEK293T cells transiently expressing either the β1-AR (A) or β2-AR (B). Both the radioligand concentration and bound radioligand were quantified by scintillation counting. Data represent the po o led m ean ± SD of 4 experiments. Binding affinities (pKd) of [3H]dihydroalprenolol were determined by fitting the data in each individual experiment. […]
(§2) and a Bmax value of 33 ± 19 pmol/mg at membranes expressing the β2-AR.
(§3) (1 picture or pasted object on this page, not shown here)

β2-AR [2] = target: T2, β2-AR (Homo sapiens, UniProt P07550); assay: Saturation binding of [3H]dihydroalprenolol, β2-AR membranes; parameters: host or cells: HEK293T, transient; membranes; conditions: HEK293T membranes
Method: as §1, §2, §3
Target sequence in this assay (P07550 whole entry): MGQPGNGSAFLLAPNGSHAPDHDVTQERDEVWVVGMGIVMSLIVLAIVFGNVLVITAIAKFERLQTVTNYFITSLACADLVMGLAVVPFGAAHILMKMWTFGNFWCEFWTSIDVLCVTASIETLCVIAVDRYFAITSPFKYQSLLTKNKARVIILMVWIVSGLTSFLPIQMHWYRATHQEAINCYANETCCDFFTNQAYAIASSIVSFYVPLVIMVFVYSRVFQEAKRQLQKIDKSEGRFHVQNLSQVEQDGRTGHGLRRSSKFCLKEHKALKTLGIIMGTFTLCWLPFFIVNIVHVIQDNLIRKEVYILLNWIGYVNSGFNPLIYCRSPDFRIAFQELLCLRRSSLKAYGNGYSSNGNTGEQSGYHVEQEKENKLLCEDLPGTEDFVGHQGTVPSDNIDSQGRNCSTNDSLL

[3] = test system: isolated adult rat cardiomyocytes; assay: Contractility (sarcomere shortening) of paced isolated cardiomyocytes; format: cell-based; conditions: paced at 2 Hz; for effect on isoprenaline-enhanced contractility: 1 μM with 15 nM isoprenaline
Method: To evaluate Opto-prop-2 in a relevant biological system with endogenous levels of the native receptor proteins, it was tested using isolated adult rat cardiomyocytes. Cardiomyocytes were paced at 2Hz, inducing contractions that were quantified by measuring the sarcomere length over time (Figure 6A). […] This enhanced contractility was attenuated by co-incubating with cis-Opto-prop-2 (magenta line) but not by trans-Opto-prop-2 (teal line) at 1 μM concentrations.
Intact adult cardiomyocytes were isolated from 3 adult wild-type Wistar rats weighing 200–250 g as described previously. ([Nollet et al., 2020]; [van Deel et al., 2017]) Briefly, rats were sedated and anesthesized by isoflurane inhalation. The heart was removed and perfused in a Langendorff setup with Liberase TM (Roche) digestive enzymes and the left ventricle was consequently cut into small pieces and resuspended in stopping buffer. This mixture was passed over a 300 μm nylon mesh filter, isolated cells in the filtrate were resuspended in buffer containing 1mM CaCl2. Cells were suspended in plating medium composed of Medium 199 (Lonza), 1% penicillin/streptomycin and 5% bovine serum and plated on a laminin coated dish (10 μg/mL, Sigma-Aldrich). The cells were incubated for 1 h at 37 °C in humidified air with 5% CO2 to let them attach to the coated dish. Afterwards, non-attached cells were removed by washing cells with pre-heated Tyrode solution (137 mM NaCl, 5.4 mM KCl, 3 mM sodium pyruvate, 5 mM HEPES, 0.57 mM MgCl2, 0.33 mM NaH2PO4, 1.0 mM CaCl2 and 5.6 mM glucose, pH 7.4 at 37 °C). Contractility measurements were performed at 37 °C using the Multi-Cell system (CytoCypher, the Netherlands). Cells were treated to vehicle (DMSO), 15 nM isoproterenol alone or in combination with 1 μM of propranolol or Opto-prop-2 (either with or without prior illumination). […]
Changes in sarcomere length were recorded with a high-speed camera and Ionoptix software (Ionoptix, Westwood MA, USA). The contractility profiles were analyzed with the automated, batch analysis software ‘Transient Analysis Tools’ (CytoCypher, Amsterdam, NL). […]

β2-AR [4] = target: T2, β2-AR; assay: [3H]DHA radioligand displacement on membranes of HEK293T cells expressing β2-AR; conditions: for selectivity in binding β2-AR over β1-AR: cis-isomer (PSScis); for fold Ki trans vs PSScis at β2-AR: fold difference between Ki of trans and Ki at PSScis; for Active state at β2-AR: isomer state with higher affinity; for Ki: β2-AR
Target sequence in this assay (P07550 whole entry): as above
Method: (§5) Membranes of HEK293T-cells transiently expressing the receptor of interest were co-incubated with the tritiated β1/β2-AR antagonist dihydroalprenolol ([^3H]DHA, Figure S2 depicts saturation binding experiments), together with increasing concentrations of the competing unlabeled ligand.
(§6) Two million HEK293T cells were seeded in a 10cm^2 dish and were transiently transfected the next day with 1 μg human β1-AR or the β2-AR plasmid DNA, 4 μg empty pcDEF3 plasmid DNA and 30 μg linear 25 kDa polyethyleneimine (PEI; Polysciences Warrington, USA) in a 150 mM NaCl solution. […] Two days after transfection, cells were resuspended and washed (3 times) with PBS and pelleted by centrifugation steps at 1500 g. After the final centrifugation step, cell pellets were reconstituted into ice-cold Tris-HCl buffer (15 mM, supplemented with 0.3 mM EDTA and 2 mM MgCl2 at pH7.4) and dounce-homogenised by plunging the pestle 10 times with 1,500 rpm (Tamson, the Netherlands). The homogenates were frozen and thawed twice using liquid nitrogen, after which the membranes were isolated using an ultra-centrifuge L70 at 40,000 g (Beckman Coulter, USA). Cell pellets were then washed and reconstituted in ice-cold 20 mM Tris-HCl buffer supplemented with 250 mM Sucrose at pH 7.4. Finally, the membrane samples where homogenized using a 23-gauge needle, snap-frozen with liquid nitrogen and stored until further experimentation at −80 °C. The protein content was determined using a BCA protein assay kit (Thermo Scientific, USA).
(§7) On the day of the experiment 0.25–0.5 μg membranes expressing either the β1-AR or the β2-AR, were co-incubated with [^3H]DHA (Perkin Elmer, USA) and increasing concentrations unlabeled ligand in HBSS buffer (Thermo Scientific, with Ca^2+ and Mg^2+) supplemented with 0.1% BSA for 1 h at 25 °C under gentile agitation. Either a 4 nM or 1 nM concentration of [^3H]DHA was used in combination with membranes expressing either the β1-AR or β2-AR, respectively. Binding reactions were terminated by filtration over a PEI coated GF/C filter (Perkin Elmer) using ice-cold 50 mM Tris-HCl buffer with 500 mM NaCl at pH 7.4. GF/C plates were dried at 52 °C and filter bound [^3H]DHA was quantified by adding 25 μL/well Microscint-O scintillation liquid and counting luminescence using the Wallac Microbeta counter, as described before.
(§8) IC50 values were determined by fitting the concentration-dependent displacement of [^3H]DHA by unlabeled ligands, with a three-parameter sigmoidal model in GraphPad Prism. […] Competition binding graphs represent the pooled data of ≥3 experiments, normalized to the fitted top and bottom of the reference sigmoidal displacement curve of unlabeled DHA.

[5] = UV-Vis absorbance spectra; format: physicochemical; conditions: 25 μM in HBSS buffer with 1% DMSO; for λmax cis: cis-isomer; for λmax trans: trans-isomer
Method: (§4) Solubility in buffer was explored for all compounds using nephelometry ([Bevan and Lloyd, 2000]) and these studies indicate good solubility of all azobenzene photoswiches up to at least 100 μM (Figure S1). […] For all compounds, 360 nm induces a large change in absorbance spectrum compared with the non-illuminated (dark) compounds (Table 1, Figure 2A, and S1), indicating photoisomerization to the cis-isomer. The absorbance peak (λmax) of Opto-prop-1-3 ranged between 319 and 347 nm for the trans-isomers and between 423 and 429 for the cis-isomers (Table 1), as is typical for azobenzene compounds ([Hauwert et al., 2018]). […] The photochemical conversions were determined by continuous illumination of the Opto-prop compounds with near UV-light (360 ± 20 nm) as 10-mM solutions in DMSO. Based on LCMS analysis, it was observed that all compounds obtained a high level of conversion to the cis-isomer with a photostationary state (PSS) of >88 area % cis-isomer (i.e. PSScis; Table 1). Subsequent back-switching to PSStrans with 434 nm maintained 22–29 area % cis-isomer (Table 1). The thermal relaxation of the PSScis state of the photoswitchable ligands was monitored over time by measuring absorbance at 254 nm. Only minor thermal relaxation to the trans-isomer could be detected at 20°C (not shown). An estimate of the relaxation rate at 20 °C was determined using a method by Priimagi et al. ([Ahmed et al., 2017]), which was performed in Hanks’ balanced salt solution (HBSS) using increased temperatures to enhance the speed of thermal relaxation. The Opto-prop ligands are all very stable as cis-isomer after illumination, with thermal relaxation half-lives of >10 days at 20 °C (See Table 1 and Figure S1).
UV-Vis spectra were obtained using a Thermo-scientific Evolution 201 PC spectrophotometer. Illumination was executed using a Sutter instruments Lambda LS with a 300 Watt full-spectrum lamp connected to a Sutter instruments Lambda 10-3 optical filter changer equipped with 360 ± 20 nm, 400 ± 5 nm, 434 ± 9 nm and 460 ± 5 nm filters. The light intensity is 0.93 mW/mm^2 using the 360 ± 20 nm filter, 0.22 mW/mm^2 using the 400 ± 5 nm filter, 0.79 mW/mm^2 for the 434 ± 9 nm filter and 0.26 mW/mm^2 for the 460 ± 5 nm filter as measured using a Thorlabs PM16-401 power meter.
For the determination of the UV-Vis spectra shown in Figure 2A, compounds (25 μM in 1% DMSO/HBSS buffer) were illuminated in Hellma Suprasil quartz 114-QS cuvettes with either a 360, 400, 434 or 460 nm filter for the indicated time. For the determination of PSScis and PSStrans states by UV spectroscopy (Figures S1D–S1F), a solution of the compound in 1% DMSO/HBSS buffer (25 μM) in a vial was illuminated to PSS cis with 360 nm (typically 4–5 min) and subsequently to PSS trans with 434 nm (typically 2–5 min). UV spectra were recorded.

[6] = PSScis and PSStrans by LC analysis; format: physicochemical; conditions: for PSScis (% cis-isomer): 10 mM in DMSO after illumination with 360 nm; for PSScis (% cis-isomer) / PSStrans (% cis-isomer): LCMS area at isosbestic wavelength; for PSStrans (% cis-isomer): 10 mM in DMSO, 360 nm then 434 nm
Method: as §4
For the determination of PSScis and PSStrans values by LC analysis (Table 1), a solution of the compound in DMSO (10 mM) was illuminated to PSScis with 360 nm and subsequently to PSStrans with 434 nm. PSS aliquots were withdrawn, diluted with MeCN and subjected to LCMS analysis with the corresponding isosbestic points wavelength: 278, 263 and 308 nm for Opto-prop-1-3, respectively.

[7] = Cis-to-trans thermal relaxation, Arrhenius extrapolation; format: physicochemical; conditions: PSScis sample 25 μM in HBSS buffer with 1% DMSO; Arrhenius extrapolation to 20 °C
Method: as §4
Cis-to-trans thermal relaxations were performed in the dark at 25 μM of the PSS360 state of the Opto-prop-1, -2 or -3 in HBSS buffer with 1% DMSO at various temperatures (60°C, 70°C and 80°C). Absorbance was repeatedly measured at 320, 320 and 347 nm for Opto-prop-1, -2 or -3, respectively, with 60 s intervals.

β1-AR [8] = target: T1, β1-AR; assay: [3H]DHA radioligand displacement on membranes of HEK293T cells expressing β1-AR; conditions: for fold Ki trans vs PSScis at β1-AR: fold difference between Ki of trans and Ki at PSScis; for Active state at β1-AR: isomer state with higher affinity
Method: as §5, §6, §7, §8

β2-AR [9] = target: T2, β2-AR; assay: Conformational β2-AR BRET sensor in HEK293A cells
Target sequence in this assay (P07550 1-369): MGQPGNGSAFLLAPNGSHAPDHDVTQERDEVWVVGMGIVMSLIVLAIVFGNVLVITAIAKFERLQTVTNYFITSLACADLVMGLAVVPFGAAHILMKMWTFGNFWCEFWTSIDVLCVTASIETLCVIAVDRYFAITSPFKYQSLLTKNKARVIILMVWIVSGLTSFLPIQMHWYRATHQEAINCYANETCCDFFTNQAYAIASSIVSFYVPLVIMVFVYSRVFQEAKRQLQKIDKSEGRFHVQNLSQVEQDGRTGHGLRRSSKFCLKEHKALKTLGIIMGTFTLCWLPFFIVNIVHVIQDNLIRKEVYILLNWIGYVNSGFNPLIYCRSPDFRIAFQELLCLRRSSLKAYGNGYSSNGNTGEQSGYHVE
Method: The next day, cells were washed with HBSS and incubated with a 1/1000 stock solution of furimazine. […] Wells pre-incubated with 0.1% DMSO/HBSS control were treated with vehicle control.
Raw BRET ratios were defined as acceptor emission/donor emission.
Antagonist pKB values were calculated using the agonist potency and concentration together with the antagonist IC50 values, using the Cheng-Prusoff equation.

[10] = pKi PSScis, β1-AR, illuminated to PSScis (360 nm) before experiment
[11] = pKi trans, β1-AR, without prior illumination (trans-isomer)
[12] = pKi PSScis, illuminated to PSScis (360 nm) before experiment
[13] = pKi trans, without prior illumination (trans-isomer)

T1 sequence (P08588 whole entry): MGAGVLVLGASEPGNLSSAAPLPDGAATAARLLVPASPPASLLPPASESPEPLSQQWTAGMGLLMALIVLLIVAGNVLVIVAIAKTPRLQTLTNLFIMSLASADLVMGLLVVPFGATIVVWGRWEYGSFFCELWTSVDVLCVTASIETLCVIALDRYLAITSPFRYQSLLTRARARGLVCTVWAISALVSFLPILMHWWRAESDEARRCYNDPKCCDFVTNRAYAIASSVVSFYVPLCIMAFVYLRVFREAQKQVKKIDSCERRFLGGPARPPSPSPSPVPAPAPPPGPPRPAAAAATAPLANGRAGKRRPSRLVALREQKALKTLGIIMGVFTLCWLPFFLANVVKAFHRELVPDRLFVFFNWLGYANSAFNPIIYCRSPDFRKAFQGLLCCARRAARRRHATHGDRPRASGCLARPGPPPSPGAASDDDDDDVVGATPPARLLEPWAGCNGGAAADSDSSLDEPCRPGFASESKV

CCCc1ccccc1OCC(O)CNC(C)C (stereo not drawn) [[3H]dihydroalprenolol, dihydroalprenolol]
Bmax, β1-AR membranes (β1-AR [1]): 56 ± 16 pmol/mg | Bmax, β2-AR membranes (β2-AR [2]): 33 ± 19 pmol/mg

CC(C)NCC(O)COc1cccc(/N=N\c2ccccc2)c1 (stereo not drawn) [cis-Opto-prop-2]
effect on isoprenaline-enhanced contractility [3]: attenuated | increase in β2-AR affinity upon 360 nm illumination (β2-AR [4]; cis vs trans): ~3 log-units | selectivity in binding β2-AR over β1-AR (β2-AR [4]): 78 fold

CC(C)NCC(O)COc1ccccc1/N=N/c1ccccc1 (stereo not drawn) [Opto-prop-1]
λmax cis [5]: 423 nm | λmax trans [5]: 321 nm | PSScis (% cis-isomer) [6]: 88.9 ± 1.0 % cis-isomer | PSStrans (% cis-isomer) [6]: 28.8 ± 0.3 % cis-isomer | t1/2 20°C (thermal relaxation of cis-isomer) [7]: >240 h | Ki (β1-AR [8]; Ki at β1-AR, trans-isomer): < 13 nM | fold Ki trans vs PSScis at β1-AR (β1-AR [8]): 9 fold and 9.4 fold | Active state at β1-AR (β1-AR [8]): trans | Ki (β1-AR [8]; [10]): 79.4 nM | Ki (β1-AR [8]; [11]): 7.94 nM | selectivity β2-AR over β1-AR (β2-AR [4]; both isomers): ≥ 10 fold | fold Ki trans vs PSScis at β2-AR (β2-AR [4]): 4 fold and 4.3 fold | Active state at β2-AR (β2-AR [4]): trans | Ki (β2-AR [4]; [12]): 3.16 nM | Ki (β2-AR [4]; [13]): 0.794 nM

CC(C)NCC(O)COc1ccccc1/N=N\c1ccccc1 (stereo not drawn) [cis-Opto-prop-1]
selectivity in binding β2-AR over β1-AR (β2-AR [4]): 21 fold

CC(C)NCC(O)c1ccc(O)c(O)c1 (stereo not drawn) [isoprenaline, reference compound]
effect on sarcomere shortening ([3]; 15 nM): further increased the shortening of the sarcomeres

CC(C)NCC(O)COc1ccc(/N=N/c2ccccc2)cc1 (stereo not drawn) [Opto-prop-3]
λmax cis [5]: 429 nm | λmax trans [5]: 347 nm | PSScis (% cis-isomer) [6]: 93.8 ± 0.6 % cis-isomer | PSStrans (% cis-isomer) [6]: 21.5 ± 0.1 % cis-isomer | trans-content at PSStrans ([6]; 434 nm): 78.5% | t1/2 20°C (thermal relaxation of cis-isomer) [7]: >240 h | Ki (β1-AR [8]; Ki at β1-AR, trans-isomer): < 13 nM | selectivity β1-AR over β2-AR (β1-AR [8]; both isomers): ≥ 10 fold | fold Ki trans vs PSScis at β1-AR (β1-AR [8]): 18 fold | Active state at β1-AR (β1-AR [8]): trans | Ki (β1-AR [8]; [10]): 200 nM | Ki (β1-AR [8]; [11]): 12.6 nM | fold Ki trans vs PSScis at β2-AR (β2-AR [4]): 2.6 fold | Active state at β2-AR (β2-AR [4]): cis | Ki (β2-AR [4]; [12]): 3980 nM | Ki (β2-AR [4]; [13]): 10000 nM

CC(C)NCC(O)COc1ccc(/N=N/c2ccccc2)cc1 (stereo not drawn) [trans-Opto-prop-3]
selectivity in binding affinity β1-AR over β2-AR (β1-AR [8]; trans-isomer): 813 fold

CC(C)NCC(O)COc1cccc(/N=N/c2ccccc2)c1 (stereo not drawn) [trans-Opto-prop-2]
effect on isoprenaline-enhanced contractility [3]: not | IC50 (β2-AR [9]): 1000 nM | fold Ki trans vs PSScis at β2-AR (β2-AR [4]): 587 fold

From PMC9436767, “Optical control of the β2-adrenergic receptor with opto-prop-2: A cis-active azobenzene analog of propranolol” (iScience, 2022)
